From PubChem BioAssay (NCI)
Values joined by “and” are separate entries in the source; they are usually repeats but may differ in a detail not shown here. Equal entries are not always repeated.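 Values below derive from 48-hour exposures of cells grown in 96-well plates, with endpoints linearly interpolated between the two concentrations bracketing the appropriate inhibition level. At the GI50, growth is halved. TGI is the concentration that stops growth completely.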

Legend:
Assay in all cases: DTP human tumour cell line panel, 48 h
SF-268 CNS = test system: SF-268 CNS
HCT-15 colon = test system: HCT-15 colon
MOLT-4 leukemia = test system: MOLT-4 leukemia
SR leukemia = test system: SR leukemia
U251 CNS = test system: U251 CNS
CAKI-1 renal = test system: CAKI-1 renal
SK-OV-3 ovarian = test system: SK-OV-3 ovarian
MDA-MB-435 = test system: MDA-MB-435
HCC-2998 colon = test system: HCC-2998 colon
TK-10 renal = test system: TK-10 renal

Structure (SMILES)	TGI (SF-268 CNS)	TGI (HCT-15 colon)	TGI (MOLT-4 leukemia)	TGI (SR leukemia)	TGI (U251 CNS)	TGI (CAKI-1 renal)	TGI (SK-OV-3 ovarian)	GI50 (MDA-MB-435)	TGI (MDA-MB-435)	GI50 (HCC-2998 colon)	TGI (HCC-2998 colon)	GI50 (HCT-15 colon)	GI50 (MOLT-4 leukemia)	GI50 (U251 CNS)	GI50 (CAKI-1 renal)	GI50 (SK-OV-3 ovarian)	GI50 (SF-268 CNS)	GI50 (TK-10 renal)	TGI (TK-10 renal)	GI50 (SR leukemia)
O=c1c2cc(Br)ccc2nc(-c2ccccc2Cl)n1NCC1(O)OCC(O)C(O)C1O (configuration not stated)	> 100 µM	> 100 µM	> 100 µM	> 100 µM	> 100 µM	> 100 µM	> 100 µM													
Cn1ccc2c(c1=O)C(=O)c1nccc3c1c-2nc1ccccc13		3.46 µM	7.01 µM		2.79 µM	2.85 µM	3.15 µM	1.62 µM	3.13 µM	1.72 µM	3.15 µM	1.56 µM	2.26 µM	1.38 µM	1.44 µM	1.74 µM				
Cc1ccc(/C=C2/SC(Nc3nc(-c4nc(NC5=NC(=O)/C(=C\c6ccc(C)cc6)S5)sc4C)c(C)s3)=NC2=O)cc1	> 50 µM	> 19.6 µM	> 50 µM	> 50 µM	38.9 µM	9.41 µM				1.71 µM	9.92 µM	0.347 µM	> 19.7 µM	0.322 µM	0.484 µM		2.51 µM	0.288 µM	1.21 µM	0.373 µM
CC1CC(c2cccc3c2OCO3)=Nc2ccccc2S1 (configuration not stated)	> 100 µM	> 100 µM	> 100 µM			> 100 µM	> 100 µM				> 100 µM								> 100 µM	
CC1=C(C(=O)Nc2cccc(Cl)c2)C(c2ccc([N+](=O)[O-])cc2)C(C(=O)Nc2cccc(Cl)c2)=C(C)N1	> 100 µM	79.8 µM	56.2 µM		56 µM		48.9 µM				48.2 µM								> 100 µM	
O=C(/C=C/c1ccc(Cl)c(Cl)c1)c1ccc(F)cc1	56.3 µM	22.7 µM	38 µM		25.7 µM	60.8 µM	83.5 µM				32.8 µM								94.7 µM	
COCC1N=C(c2cc(OC)c(OC)c(OC)c2-c2cc3c(cc2C2OCCCO2)OCO3)O[C@H]1c1ccccc1 (some centres not stated)	> 100 µM	> 100 µM	> 100 µM		> 100 µM	> 100 µM	> 100 µM				> 100 µM								> 100 µM	
CC(/C(=N/NC(=O)C(N)=O)c1c(Cl)ccc(Cl)c1O)C1(O)C(=O)Nc2ccccc21 (configuration not stated)	> 100 µM	> 100 µM			> 100 µM	> 100 µM	> 100 µM				> 100 µM								> 100 µM	
CCN1CCN(CC(=O)Nc2nc3ccc(NCc4ccc(Cl)cc4)cc3s2)CC1	6.29 µM	4.66 µM	5.78 µM	17 µM	4.03 µM	5.19 µM	7.98 µM	1.9 µM	3.81 µM			1.95 µM	2.23 µM	2 µM	2.1 µM	2.95 µM	2.43 µM	2.84 µM	7.45 µM	2.78 µM
O=c1c2cccc3cccc(c4oc5c6cccc7cccc(c(=O)c5c14)c76)c32	19.6 µM	16.9 µM	21.5 µM	29.9 µM	17.4 µM	45.9 µM	> 31.6 µM				> 31.6 µM								17.5 µM	
Fc1cccc2cc3ccc4cccc5ccc(c12)c3c45	> 100 µM		> 100 µM		> 100 µM	> 100 µM	> 100 µM				> 100 µM								> 100 µM	
CC(=O)Nc1ccc(/C=N\N2C(=O)c3ccccc3C2=O)cc1	> 100 µM	> 100 µM	> 100 µM	> 100 µM		> 100 µM					> 100 µM								> 100 µM	
COC(C(=O)C(O)C(C)O)C1Cc2cc3cc(OC4CC(OC(C)=O)C(OC5CC(O)C(OC)C(C)O5)C(C)O4)cc(O)c3c(O)c2C(=O)C1OC1CC(OC2CC(OC3CC(C)(O)C(OC(=O)C(C)C)C(C)O3)C(O)C(C)O2)C(O)C(C)O1 (configuration not stated)		22.4 µM and 34.5 µM	0.306 µM and 0.147 µM	0.385 µM					0.21 µM			0.455 µM				0.0217 µM and 0.0423 µM				
Nc1ccn(CCO)c(=O)n1	> 100 µM	> 100 µM		> 100 µM	> 100 µM	> 100 µM	> 100 µM				> 100 µM								> 100 µM	
[C-]#[O+].[C-]#[O+].[C-]#[O+].[C-]#[O+].[Ir].[Ir].[O-]c1ccc2ccccc2c1C=Nc1ccc(N=Cc2c([O-])ccc3ccccc23)cc1	> 100 µM	> 100 µM	> 100 µM	> 100 µM	> 100 µM	> 100 µM	> 100 µM			> 100 µM	> 100 µM	> 100 µM	37.1 µM	> 100 µM	> 100 µM	> 100 µM	> 100 µM	> 100 µM	> 100 µM	> 100 µM
O=C(O)CCSCCCN1C(=O)c2ccccc2C1=O	> 100 µM	> 100 µM	> 100 µM	> 100 µM	> 100 µM		> 100 µM				> 100 µM								> 100 µM	
Cc1nn(-c2ccccc2)c2c1CC(=O)Nc1ccccc1-2	> 100 µM	> 100 µM	9.19 µM and 1.99 µM		> 100 µM	> 100 µM	43.8 µM		0.602 µM	0.624 µM and 0.222 µM	7.54 µM and 2.49 µM	0.145 µM	0.0843 µM	0.282 µM	0.346 µM	0.332 µM	0.623 µM		92.2 µM	
CN(c1ccc(NC(=O)Nc2ccc(OC(F)(F)F)cc2)cc1)c1ccnc(Nc2cccc(S(N)(=O)=O)c2)n1	6.74 µM	15.3 µM	4.16 µM		6.64 µM	20.8 µM	8.96 µM	3.15 µM	6.68 µM	5.11 µM	9.27 µM	5.34 µM	1.11 µM	3.07 µM	6.45 µM	4.65 µM	2.34 µM	6.21 µM	13 µM	
C/C(=C\c1ccn(-c2ccc(N)c(F)c2)n1)[C@@H]1C[C@@H]2O[C@]2(C)CCC[C@H](C)[C@H](O)[C@@H](C)C(=O)C(C)(C)[C@@H](O)CC(=O)O1	> 50 µM	> 50 µM	> 50 µM	> 50 µM	> 50 µM	> 50 µM	> 50 µM			0.0287 µM	> 50 µM	0.00913 µM	0.0106 µM	< 0.005 µM	0.0802 µM	0.0262 µM	0.0418 µM	0.064 µM	> 50 µM	0.00915 µM
